The target of experiment [1] is T1, full-length beta-Catenin (Uniprot ID P35222) (Homo sapiens, UniProt P35222).
T1 construct: 10 nM full-length beta-Catenin (Uniprot ID P35222)
T1 sequence (P35222 1-781): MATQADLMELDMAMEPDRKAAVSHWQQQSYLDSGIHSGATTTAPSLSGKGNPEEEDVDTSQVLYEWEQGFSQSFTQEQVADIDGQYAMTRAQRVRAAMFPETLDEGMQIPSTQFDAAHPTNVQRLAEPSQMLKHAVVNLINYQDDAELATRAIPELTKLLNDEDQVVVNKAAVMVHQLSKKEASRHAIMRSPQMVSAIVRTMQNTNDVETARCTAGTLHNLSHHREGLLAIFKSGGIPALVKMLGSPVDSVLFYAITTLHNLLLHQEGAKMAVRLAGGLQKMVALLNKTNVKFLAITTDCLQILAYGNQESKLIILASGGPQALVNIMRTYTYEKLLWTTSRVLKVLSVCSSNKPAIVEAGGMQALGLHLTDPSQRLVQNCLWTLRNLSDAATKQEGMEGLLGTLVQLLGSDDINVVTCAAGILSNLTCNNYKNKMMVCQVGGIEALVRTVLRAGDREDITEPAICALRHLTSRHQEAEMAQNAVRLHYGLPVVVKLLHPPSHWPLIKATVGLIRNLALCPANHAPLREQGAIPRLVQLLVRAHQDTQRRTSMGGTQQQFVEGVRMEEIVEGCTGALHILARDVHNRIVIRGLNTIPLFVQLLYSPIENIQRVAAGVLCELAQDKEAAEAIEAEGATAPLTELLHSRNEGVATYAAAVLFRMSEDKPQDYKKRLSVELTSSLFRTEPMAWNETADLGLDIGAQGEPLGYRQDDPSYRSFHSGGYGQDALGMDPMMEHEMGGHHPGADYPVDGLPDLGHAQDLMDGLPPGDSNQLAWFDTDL
The experiment can be described thus: Fluorescence polarization IC50 (beta-catenin / 5FAM-TCF4 10-53 competition). It is filed as binding. Particulars: fluorescence polarization; read-out: beta-Catenin FP IC50. (In fluorescence polarisation assays a small probe gives low polarisation when free and higher when bound to something large.)

Experiment [2] addresses T2, beta-catenin/TCF4 engagement (Homo sapiens, UniProt P35222).
T2 construct: expressed in transfected cells; host or cells: HEK293
T2 sequence (P35222 1-781): T1 sequence (P35222 1-781)
The experiment can be described thus: Nano-BRET target engagement assay (B-cat-Halo & TCF4-Luc in HEK293 cells). Particulars: absolute IC50; read-out: NanoBRET Abs IC50. It is filed as cell-based. (BRET reads energy transfer from a luciferase to a nearby fluorophore.)

SMILES strings stand for the structures.

In general, IC50 refers to the concentration at which inhibition is half-maximal.

For the compound `CC(=O)N1CCC[C@]12CCCCCCC1(CCCCCCCCOC(=O)N3CC[C@@](C(=O)N[C@@H](CC4CCCC4)C(=O)N[C@@H](Cc4csc5ccccc45)C(=O)N[C@@H](CCC(N)=O)C(N)=O)(C3)NC(=O)[C@H](CC(C)C)NC(=O)[C@H](Cc3ccccc3)NC(=O)[C@H](C)NC(=O)[C@H](C)NC(=O)[C@H](CN(CC(=O)O)CC(F)(F)F)NC(=O)[C@H](CC(=O)O)NC1=O)NC(=O)[C@H](CC(C)(C)C)NC(=O)[C@H](CC(=O)O)NC2=O` (stereo partly drawn) [I-1713, Ac-PL3-Asp-Npg-B5-Asp-TfeGA-Ala-Ala-Phe-Leu-PyrS2-CypA-BztA-Gln-NH2], the IC50 was 0.498 µM in experiment [1] and greater than 20 µM in experiment [2].
For the compound `CC(=O)N1CCC[C@]12CCCCCCC1(CCCCCCCCOC(=O)N3CC[C@@](C(=O)N[C@@H](Cc4ccccc4C(F)(F)F)C(=O)N[C@@H](Cc4csc5ccccc45)C(=O)N[C@@H](CCC(N)=O)C(N)=O)(C3)NC(=O)[C@H](CC(C)C)NC(=O)[C@H](Cc3ccccc3)NC(=O)[C@H](C)NC(=O)[C@H](C)NC(=O)[C@H](CN(CC(=O)O)CC(F)(F)F)NC(=O)[C@H](CC(=O)O)NC1=O)NC(=O)[C@H](CC(C)(C)C)NC(=O)[C@H](CC(=O)O)NC2=O` (stereo partly drawn) [I-1714, Ac-PL3-Asp-Npg-B5-Asp-TfeGA-Ala-Ala-Phe-Leu-PyrS2-2F3MeF-BztA-Gln-NH2], the results for the IC50 in experiment [1] and in experiment [2] were 0.372 µM and 28.6 µM, respectively.
`CC(=O)N1CCC[C@]12CC=CCCCC1(CCCC=CCCCOC(=O)N3CC[C@@](C(=O)N[C@@H](Cc4ccccc4Cl)C(=O)N[C@@H](Cc4csc5ccccc45)C(=O)N[C@@H](CCC(N)=O)C(N)=O)(C3)NC(=O)[C@H](CC(N)=O)NC(=O)[C@H](Cc3ccccc3)NC(=O)[C@H](C)NC(=O)[C@H](C)NC(=O)[C@H](CC(=O)O)NC(=O)[C@H](CC(=O)O)NC1=O)NC(=O)[C@H](CC(C)(C)C)NC(=O)[C@H](CC(=O)S)NC2=O` (stereo partly drawn) [I-1721, Ac-PL3-AspSH-Npg-B5-Asp-Asp-Ala-Ala-Phe-Asn-PyrS2-2C1F-BztA-Gln-NH2]: the IC50 in experiment [1] was 0.139 µM; in experiment [2], greater than 20 µM.
Take `CC(=O)N1CCC[C@]12CC=CCCCC1(CCCC=CCCCOC(=O)N3CC[C@@](C(=O)N[C@@H](Cc4ccccc4Cl)C(=O)N[C@@H](Cc4csc5ccccc45)C(=O)N[C@@H](CCC(N)=O)C(N)=O)(C3)NC(=O)[C@H](CC(N)=O)NC(=O)[C@H](Cc3ccccc3)NC(=O)[C@H](C)NC(=O)[C@H](C)NC(=O)[C@H](CC(=O)O)NC(=O)[C@H](CC(=O)O)NC1=O)NC(=O)[C@H](CC(C)(C)C)NC(=O)[C@H](CC(=O)S)NC2=O` (stereo partly drawn) [I-1722, Ac-PL3-AspSH-Npg-B5-Asp-Asp-Ala-Ala-Phe-Asn-PyrS2-2C1F-BztA-Gln-NH2]: the 50% inhibitory concentration (IC50) in experiment [1] is 0.135 µM; in experiment [2], greater than 20 µM.
For the compound `CC(=O)N1CCC[C@]12CC=CCCCC1(CCCC=CCCCOC(=O)N3CC[C@@](C(=O)N[C@@H](Cc4ccccc4C)C(=O)N[C@@H](Cc4csc5ccccc45)C(=O)N[C@@H](CCC(N)=O)C(N)=O)(C3)NC(=O)[C@H](CC(C)C)NC(=O)[C@H](Cc3ccccc3)NC(=O)[C@H](C)NC(=O)[C@H](C)NC(=O)[C@H](CN(CC(=O)O)CC(F)(F)F)NC(=O)[C@H](CC(=O)O)NC1=O)NC(=O)[C@H](CC(C)(C)C)NC(=O)[C@H](CC(=O)O)NC2=O` (stereo partly drawn) [I-1725, Ac-PL3-Asp-Npg-B5-Asp-TfeGA-Ala-Ala-Phe-Leu-PyrS2-2MeF-BztA-Gln-NH2], the IC50 in experiment [1] was 0.015 µM; in experiment [2], 10 µM.
With `CC(=O)N1CCC[C@]12CCCCCCC1(CCCCCCCCOC(=O)N3CC[C@@](C(=O)N[C@@H](Cc4ccccc4C)C(=O)N[C@@H](Cc4csc5ccccc45)C(=O)N[C@@H](CCC(N)=O)C(N)=O)(C3)NC(=O)[C@H](CC(C)C)NC(=O)[C@H](Cc3ccccc3)NC(=O)[C@H](C)NC(=O)[C@H](C)NC(=O)[C@H](CN(CC(=O)O)CC(F)(F)F)NC(=O)[C@H](CC(=O)O)NC1=O)NC(=O)[C@H](CC(C)(C)C)NC(=O)[C@H](CC(=O)O)NC2=O` (stereo partly drawn) [I-1726, Ac-PL3-Asp-Npg-B5-Asp-TfeGA-Ala-Ala-Phe-Leu-PyrS2-2MeF-BztA-Gln-NH2], the results for the IC50 in experiment [1] and in experiment [2] were 0.274 µM and greater than 20 µM, respectively.

These data come from patent US20240116985A1, “STAPLED PEPTIDES AND METHODS THEREOF” (priority 2020, published 2024).
